Measurements taken from ChEMBL document CHEMBL5725333, “Fumagillol heterocyclic compounds and methods of making and using same” (2017).
pIC50: −log10 of the molar value.

Target: Methionine aminopeptidase 2 (Homo sapiens, UniProt P50579)
Assay: 10 mM stock solutions of compounds were prepared in 100% DMSO and further diluted in 100% DMSO required concentration to 1 mM stocks. The stock compound solutions and DMSO vehicle controls were diluted to target final compound concentrations using assay buffer to a final concentration of 50 mM HEPES containing 100 mM NaCl, pH adjusted to 7.5. The MAS peptide was formulated to a 7.5 mM stock in distilled water and prior to use further diluted 1:4. […] 40 μl of enzyme was mixed with 100 μl of MnCl2 then further diluted in assay buffer to a final concentration of 16 μg/ml. To test for compound effect on MetAP2 enzyme activity, 5 μl of test compound, 10 μl of MAS substrate/amino acid oxidase mixture, 10 μl of MetAP2 was added to test wells in a 384 well black plate with blank wells containing no enzyme, replaced with 10 μl of assay buffer. All compounds were tested in duplicate on two occasions on the same day. […] The plate was sealed with a TopSeal A cover and mixed briefly on an orbital mixer at 900 rpm. The plate was incubated for a further 25 minutes at 25° C. A 5× stock of Amplex buffer was prepared (0.25M sodium phosphate, pH 7.4) and stored at 4° C. […] 25 μl detection reagent was added to each well of the test plate, which was re-sealed and mixed briefly on an orbital shaker.

Chain of Methionine aminopeptidase 2 (P50579 whole entry): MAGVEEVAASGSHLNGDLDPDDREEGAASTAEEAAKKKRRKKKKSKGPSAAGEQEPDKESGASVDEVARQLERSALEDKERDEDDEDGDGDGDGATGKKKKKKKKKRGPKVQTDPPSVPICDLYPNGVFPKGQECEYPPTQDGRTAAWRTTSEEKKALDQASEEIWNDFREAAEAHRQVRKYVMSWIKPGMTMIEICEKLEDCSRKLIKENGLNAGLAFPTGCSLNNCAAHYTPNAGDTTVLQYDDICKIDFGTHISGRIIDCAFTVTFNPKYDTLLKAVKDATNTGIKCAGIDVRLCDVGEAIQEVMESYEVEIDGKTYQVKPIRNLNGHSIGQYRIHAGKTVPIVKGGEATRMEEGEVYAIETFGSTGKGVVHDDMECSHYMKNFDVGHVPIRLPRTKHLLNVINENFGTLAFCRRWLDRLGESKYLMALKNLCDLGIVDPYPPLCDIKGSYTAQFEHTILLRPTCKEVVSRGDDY

SMILES	pIC50
CO[C@@H]1[C@H](OC(=O)N2CC(CCN3CCCC3)C2)CC[C@]2(CO2)[C@H]1[C@@]1(C)O[C@@H]1CC=C(C)C	> 7.30
CCN(CC)CCNC(=O)OCC1CN(C(=O)O[C@@H]2CC[C@]3(CO3)[C@@H]([C@@]3(C)O[C@@H]3CC=C(C)C)[C@@H]2OC)C1	> 7.30
